Test results taken from ChEMBL document CHEMBL1131704, “trans-2,6-,3,6- and 4,6-diaza-5,6,6a,7,8,12b-hexahydro-benzo[c]phenanthrene-10,11- diols as dopamine agonists” (Bioorg Med Chem Lett, 1999).

What was measured:
D(1A) dopamine receptor [1] = biological target: T1, D(1A) dopamine receptor (Homo sapiens, UniProt P21728); assay: Potency in adenylate cyclase functional assay against Dopamine receptor D1
D(2) dopamine receptor = D(2) dopamine receptor (Homo sapiens, UniProt P14416); assay: Binding affinity to human Dopamine receptor D2 by using radioligand [3H]spiperone in LTK cells; format: cell-based
D(1A) dopamine receptor [2] = biological target: T1, D(1A) dopamine receptor; assay: Intrinsic activity relative against Dopamine receptor D1.; format: functional
D(1A) dopamine receptor [3] = biological target: T1, D(1A) dopamine receptor; assay: Binding affinity to Dopamine receptor D1 by using radioligand [125I]SCH-23982 in HEK cells; format: cell-based, HEK293
[4] = biological target: Dopamine D1 and D2 receptor (Homo sapiens) (UniProt P14416+P21728); assay: Ratio of Ki for human dopamine-2(D-2) and dopamine-1(D-1) receptors; format: protein assay
Sequence of Dopamine D1 and D2 receptor (Homo sapiens) (P14416 whole entry, looked up): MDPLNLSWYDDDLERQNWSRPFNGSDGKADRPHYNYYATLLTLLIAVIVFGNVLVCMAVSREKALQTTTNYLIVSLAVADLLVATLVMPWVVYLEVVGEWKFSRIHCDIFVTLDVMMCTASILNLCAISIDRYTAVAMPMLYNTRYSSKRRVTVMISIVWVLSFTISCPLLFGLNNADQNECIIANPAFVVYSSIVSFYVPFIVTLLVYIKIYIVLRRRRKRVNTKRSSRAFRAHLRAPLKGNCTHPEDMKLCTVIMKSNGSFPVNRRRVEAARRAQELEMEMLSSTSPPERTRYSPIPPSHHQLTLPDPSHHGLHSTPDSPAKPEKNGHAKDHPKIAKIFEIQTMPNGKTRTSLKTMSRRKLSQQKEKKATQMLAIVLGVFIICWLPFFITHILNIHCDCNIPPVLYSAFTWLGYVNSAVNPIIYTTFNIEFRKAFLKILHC
Sequence of Dopamine D1 and D2 receptor (Homo sapiens) (P21728 whole entry, looked up): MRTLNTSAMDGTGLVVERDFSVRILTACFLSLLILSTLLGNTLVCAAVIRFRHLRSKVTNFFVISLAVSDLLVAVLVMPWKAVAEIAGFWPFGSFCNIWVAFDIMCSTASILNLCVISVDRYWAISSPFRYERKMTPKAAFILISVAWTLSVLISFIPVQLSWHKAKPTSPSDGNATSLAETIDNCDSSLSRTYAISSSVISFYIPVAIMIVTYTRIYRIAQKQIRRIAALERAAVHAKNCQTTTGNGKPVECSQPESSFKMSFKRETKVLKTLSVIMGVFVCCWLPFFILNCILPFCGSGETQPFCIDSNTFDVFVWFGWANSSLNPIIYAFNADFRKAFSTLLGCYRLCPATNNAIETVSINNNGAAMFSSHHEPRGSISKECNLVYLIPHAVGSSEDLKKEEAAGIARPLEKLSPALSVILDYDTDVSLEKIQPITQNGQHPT

T1 sequence (P21728 whole entry): as the sequence (P21728 whole entry, looked up) above
Sequence of D(2) dopamine receptor (P14416 whole entry): as the sequence (P14416 whole entry, looked up) above

| SMILES | EC50 (D(1A) dopamine receptor [1]) | Ki (D(2) dopamine receptor) | Intrinsic activity (D(1A) dopamine receptor [2]) | Ki (D(1A) dopamine receptor [3]) | Ratio [4] |
| --- | --- | --- | --- | --- | --- |
| Cc1cncc2c1CN[C@@H]1CCc3cc(O)c(O)cc3[C@@H]21 | 230 nM | 400 nM | 75% | 1100 nM | 0.36 |
| Oc1cc2c(cc1O)[C@H]1c3ccccc3CN[C@@H]1CC2 | – | – | 121% | – | – |
| Oc1cc2c(cc1O)[C@H]1c3cncc(F)c3CN[C@@H]1CC2 | 800 nM | 890 nM | 126% | 390 nM | 2 |
| Oc1cc2c(cc1O)[C@H]1c3cnccc3CN[C@@H]1CC2 | 320 nM | 1300 nM | 81% | 1100 nM | 1 |
| Cc1cc2c(nc1C)CN[C@@H]1CCc3cc(O)c(O)cc3[C@@H]21 | 120 nM | 9100 nM | 134% | 280 nM | 33 |
| Cc1ccc2c(n1)CN[C@@H]1CCc3cc(O)c(O)cc3[C@@H]21 | 23 nM | 1400 nM | 121% | 140 nM | 10 |
| Cc1cnc2c(c1)[C@@H]1c3cc(O)c(O)cc3CC[C@H]1NC2 | 110 nM | 12000 nM | 156% | 240 nM | 50 |
| Oc1cc2c(cc1O)[C@H]1c3cc4c(nc3CN[C@@H]1CC2)CCCC4 | 63 nM | 3600 nM | 136% | 560 nM | 6 |
| Oc1cc2c(cc1O)[C@H]1c3ccncc3CN[C@@H]1CC2 | 38 nM | 4400 nM | 131% | 140 nM | 31 |
| Oc1cc2c(cc1O)[C@H]1c3ccc(F)nc3CN[C@@H]1CC2 | 18 nM | 2200 nM | 141% | 180 nM | 12 |
| CCCc1ccc2c(n1)CN[C@@H]1CCc3cc(O)c(O)cc3[C@@H]21 | 8.6 nM | 450 nM | 116% | 45 nM | 10 |
| COc1ccc2c(n1)CN[C@@H]1CCc3cc(O)c(O)cc3[C@@H]21 | 8.8 nM | 520 nM | 114% | 49 nM | 11 |
| Oc1cc2c(cc1O)[C@H]1c3cccnc3CN[C@@H]1CC2 | 6.7 nM | 2500 nM | 125% | 65 nM | 38 |
| CCCc1cc2c(s1)CN[C@@H]1CCc3cc(O)c(O)cc3[C@@H]21 | – | – | 125% | – | 14 |
| CCCCc1cnc2c(c1)[C@@H]1c3cc(O)c(O)cc3CC[C@H]1NC2 | 180 nM | 1900 nM | 118% | 890 nM | 2 |
